Data: PMC9014415, “Repositioning of a Diaminothiazole Series Confirmed to Target the Cyclin-Dependent Kinase CRK12 for Use in the Treatment of African Animal Trypanosomiasis” (Journal of Medicinal Chemistry, 2022)
Several values for one entry are separate records, joined by “and”; a condition that tells them apart may be missing. Equal entries are not always repeated. Where two headings read alike, the source gives them in different places. Blank lines part the entries; values can stand above or below the compound they belong to.

Experiments:
T. vivax = assay: Ex vivo drug sensitivity assay, T. vivax (STIB 719/ILRAD 560); type: cell-based; conditions: Trypanosoma vivax
Procedure: Test compounds were resuspended to a final concentration of 10 mg/mL in DMSO. […]
1.3 Ex vivo drug sensitivity assays - Trypanosoma vivax
Since T. vivax cannot be cultured axenically, BSF trypanosomes were harvested from an infected mouse with high parasitemia via cardiac puncture and used directly in ex vivo assays. EC50 values were determined against T, vivax (STIB 719/ ILRAD 560) as previously described3, with minor modifications. Briefly, cell densities were determined using a Neubauer chamber and then diluted to a seeding density of 4 x 105 trypanosomes / mL. BSF trypanosomes were cultured in HMI-9 (IMDM) media containing 20% (v/v) bovine serum. Assay plates were incubated at 37 °C with 5 % CO2, for a total of 45 h prior to addition 10 µL of Resazurin (12.5 mg in 100 mL phosphate buffered saline, Aldrich) into each well, followed by a further 3 h incubation. Absorbance was read using a SpectraMax (Gemini XS) fluorescence reader at an excitation wavelength of 536 nm and an emission wavelength of 588 nm. EC50 values were determined using SOFTmax Pro 5.2 analysis […]
software. […]

[1] = Mouse hepatocyte stability; type: in vitro ADME; conditions: intrinsic clearance
[2] = PK in female NMRI mice, SC; type: in vivo, mouse
Procedure: 2.5 PK and maximum tolerated dose - mouse
PK studies in female NMRI mice (Figure S1): Test compounds 1, 2 and 10 were dosed SC at 10 mg free base/kg (dose volume 10 mL/kg; dose vehicle: 5% (v/v) DMSO, 40% polyethylene glycol 400 (PEG400) and 55% deionized water) to female NMRI mice (n = 3). Blood samples (10 μL) were taken from each mouse at 0.08, 0.25, 0.5, 1, 2, 4, 6, 8 h post dose (24 h post dose for compounds 2 and 10 only) and mixed with two volumes of deionized water (20 μL). Alternatively, compound 2 was delivered for 48 h via SC implanted ALZET osmotic pumps (10, 25 and 50 mg free base/mL, vehicle: 50% DMSO and 50% deionized water) to the female NMRI mouse (n = 3). Blood samples (10 μL) from each mouse were taken at 1, 3, 6, 24, 30 and 48 h post-dose and mixed with two volumes of deionized water (20 μL). […]

[3] = Pharmacokinetic studies in male Friesian-Holstein cattle, IV and IM (Ridgeway); type: in vivo; conditions: for Vd: read-out: Vdss
Procedure: 2.7 Pharmacokinetic studies in cattle (see Table 2). Studies conducted at Ridgeway Compound 1 was dosed IM at 5 mg free base/kg (dose volume 2mL/10 kg; dose vehicle 10% N-Methyl-2-Pyrrolidinone (NMP), 40% 2-pyrrolidinone, 30% PEG400, 20% deionized water) or IV at 2.5 mg free base/kg (dose volume 0.4 mL/10 kg; 2.5% NMP, 30% PEG400, 37.5% propylene glycol, 30% water by volume) to male ruminating Holstein-Friesian cross animals (n = 4). Blood samples were taken from each animal using 18-G needles into EDTA (K2) vacutainers before dosing and at […]
a cool box containing iced water and were processed within 2 h of collection (Figure S2, Table S1).
Compound 2 was dosed IM at 10 mg free base/kg (dose volume 2 mL/10 kg; dose vehicle 40% 0.3 M Acetate Buffer, 20% Kolliphor EL, 20% glycerol formal, 20% 2-pyrrolidone) or IV at 2 mg free base/kg (dose volume 0.4 mL/10 kg; 40% 0.3 M Acetate Buffer, 20% Kolliphor EL, 20% glycerol formal, 20% 2-pyrrolidone) to male ruminating Holstein-Friesian cross animals (n = 3). Blood samples were taken from each animal using 18-G needles into EDTA (K2) vacutainers before dosing […]
into a cool box containing iced water and were processed within 2 h of collection. […]

L6 cells = assay: Cytotoxicity assay, rat skeletal myoblasts (L6); type: cell-based
Procedure: 1.4 Cytotoxicity assays – Rat skeletal myoblasts (L6)
The cytotoxicity of test compounds was evaluated using a rat skeletal myoblast (L6) cell line, as previously described3, but with minor modifications. Cells were grown in RPMI media supplemented with 10% (v/v) fetal calf serum. L6 cells at a seeding density of 2 x 10^4 cells/mL were incubated in microtiter plates overnight at 37 °C and 5 % CO2 until adherent. The following day, test compounds were added to the plates (3-fold serial dilutions), prior to incubation for 69 h. Following incubation, 10 µL of Resazurin (12.5 mg in 100 mL phosphate buffered saline, Aldrich) was added to each well and the plates were incubated for a further 3 h. The plates were read using a SpectraMax (Gemini XS) fluorescence reader at an excitation wavelength of 536 nm and an emission wavelength of 588 nm. EC50 values were determined using SOFTmax Pro 5.2 analysis software. All experiments were conducted as technical replicates, with at least three biological replicates. […]

[4] = cattle, IM 5 mg/kg, individual animals 2754, 7462, 1753, 6752
[5] = cattle, IM 5 mg/kg, n = 4, mean
[6] = cattle, IV 2.5 mg/kg, individual animals 2754, 7462, 1753, 6752, 2.5 mg/kg
[7] = male, Holstein-Friesian cross, bovine, blood, im, 5 mg/kg, cattle, IM 5 mg/kg, individual animals 2754, 7462, 1753, 6752
[8] = cattle, IM 10 mg/kg, individual animals 1644, 3646, 7643
[9] = cattle, IM 10 mg/kg, n = 3, mean
[10] = cattle, IV 2 mg/kg, individual animals 1644, 3646, 7643, 2 mg/kg
[11] = cattle, IV 2 mg/kg, n = 3, mean, 2 mg/kg
[12] = male, Holstein-Friesian cross, bovine, blood, im, 10 mg/kg, cattle, IM 10 mg/kg, individual animals 1644, 3646, 7643
[13] = male, Holstein-Friesian cross, bovine, blood, im, 10 mg/kg, cattle, IM 10 mg/kg, n = 3, mean
[14] = male, Holstein-Friesian cross, bovine, blood, iv, 2 mg/kg, cattle, IV 2 mg/kg, individual animals 1644, 3646, 7643
[15] = male, Holstein-Friesian cross, bovine, blood, iv, 2 mg/kg, cattle, IV 2 mg/kg, n = 3, mean

Compound: CC(C)CS(=O)(=O)N[C@H]1CC[C@H](Nc2nc(N)c(C(=O)c3c(F)cccc3F)s2)CC1 [Compound 1, N-((trans)-4-((4-Amino-5-(2,6-difluorobenzoyl)thiazol-2-yl)amino)cyclohexyl)-2-methylpropane-1-sulfonamide]
EC50 (T. vivax): 95 nM
Mouse Hepatocyte Cli [1]: 5.9 mL/min/g
bioavailability at 8 h ([2]; mouse, whole blood, 10 mg/kg SC): 74%
half-life at 8 h ([2]; mouse, whole blood, 10 mg/kg SC, read-out: T½): 1 h
half-life ([2]; mouse, whole blood, 10 mg/kg SC, read-out: T½ (converted)): ~1 h
AUC 0-∞ [3, 4]: 26,000 ng-min/mL and 15,000 ng-min/mL and 22,000 ng-min/mL
Cmax [3, 4]: 70 ng/mL and 128 ng/mL and 118 ng/mL and 216 ng/mL
F [3, 4]: 11% and 7% (2×)
Tmax [3, 4]: 0.25 h
Cmax [3, 5]: 130 ± 60 ng/mL
F [3, 5]: 8.8 ± 2.1%
AUC 0-∞ [3, 6]: 120,000 ng-min/mL (2×) and 160,000 ng-min/mL
Clb [3, 6]: 24 mL/min/kg and 20 mL/min/kg and 21 mL/min/kg and 15 mL/min/kg
Vdss [3, 6]: 3.5 L/kg and 1.8 L/kg and 2.5 L/kg and 1.7 L/kg
half-life [3, 6]: 1.7 h and 2.4 h
Clb ([3]; cattle, IV 2.5 mg/kg, n = 4, mean ± SD): 20 ± 4 mL/min/kg
AUC(0-inf) [3, 7]: 350 ng·h/mL
bioavailability [3, 7]: 10%
Tmax ([3]; male, Holstein-Friesian cross, bovine, blood, im, 5 mg/kg, cattle, IM 5 mg/kg, individual animals 2754, 7462, 1753, 6752, read-out: Tmax): 0.5 h
bioavailability ([3]; male, Holstein-Friesian cross, bovine, blood, im, 5 mg/kg, cattle, IM 5 mg/kg, n = 4, mean): 9%
Cmax ([3]; male, Holstein-Friesian cross, bovine, blood, im, 5 mg/kg, cattle, IM 5 mg/kg, n = 4, mean, read-out: Cmax): 133 ng/mL
AUC(0-inf) ([3]; male, Holstein-Friesian cross, bovine, blood, iv, 2.5 mg/kg, cattle, IV 2.5 mg/kg, individual animals 2754, 7462, 1753, 6752): 1670 ng·h/mL
half-life ([3]; male, Holstein-Friesian cross, bovine, blood, iv, 2.5 mg/kg, cattle, IV 2.5 mg/kg, individual animals 2754, 7462, 1753, 6752, read-out: Half-life (converted)): 1.2 h
AUC(0-inf) ([3]; male, Holstein-Friesian cross, bovine, blood, iv, 2.5 mg/kg, cattle, IV 2.5 mg/kg, n = 4, mean ± SD): 2170 ng·h/mL
half-life ([3]; male, Holstein-Friesian cross, bovine, blood, iv, 2.5 mg/kg, cattle, IV 2.5 mg/kg, n = 4, mean ± SD, read-out: half-life (converted)): ~1.8 h
AUC(0-t) ([3]; male, Holstein-Friesian cross, bovine, blood, cattle, IM 5 mg/kg, mean, read-out: AUC0-8 (converted)): 349 ng·h/mL
AUC(0-inf) ([3]; male, Holstein-Friesian cross, bovine, whole blood, im, 5 mg/kg, cattle, IM 5 mg/kg, n = 4, mean ± SD): 350 ng·h/mL
Tmax ([3]; male, Holstein-Friesian cross, bovine, whole blood, im, 5 mg/kg, cattle, IM 5 mg/kg, n = 4, mean ± SD, read-out: Tmax): 0.44 ± 0.13 h
Vd ([3]; male, Holstein-Friesian cross, bovine, whole blood, iv, 2.5 mg/kg, cattle, IV 2.5 mg/kg, n = 4, mean ± SD): 2.4 ± 0.8 L/kg

EC50 (T. vivax): 0.47 nM
Compound: CC(C)CS(=O)(=O)N[C@H]1CC[C@H](Nc2nc(N)c(C(=O)c3c(Cl)cccc3Cl)s2)CC1 [Compound 10, N-((trans)-4-((4-Amino-5-(2,6-dichlorobenzoyl)thiazol-2-yl)amino)cyclohexyl)-2-methylpropane-1-sulfonamide]
EC50 (L6 cells): 3400 nM

EC50 (T. vivax): 0.68 nM
Compound: CNCc1cc(F)c(C(=O)c2sc(N[C@H]3CC[C@H](NS(=O)(=O)CC(C)C)CC3)nc2N)c(F)c1.Cl [Compound 8, N-((trans)-4-((4-Amino-5-(2,6-difluoro-4-((methylamino)methyl)benzoylthiazol-2-yl)amino)cyclohexyl))-2-methylpropane-1-sulfonamide Hydrochloride]
EC50 (L6 cells): 15000 nM

Compound: CC(C)CS(=O)(=O)N[C@H]1CC[C@H](Nc2nc(N)c(C(=O)c3c(F)cc(CN(C)C)cc3F)s2)CC1 [Compound 2, N-(trans)-[4-[[4-Amino-5-[4-(dimethylaminomethyl)-2,6-difluoro-benzoyl]thiazol-2-yl]amino]cyclohexyl]-2-methyl-propane-1-sulfonamide]
EC50 (T. vivax): 0.08 nM
Cmax ([2]; mouse, blood, 10 mg/kg, single SC 10 mg free base/kg): 818 ng/mL
AUC(0-t) ([2]; mouse, blood, 10 mg/kg, single SC 10 mg free base/kg, read-out: AUC0-24 (converted)): 2160 ng·h/mL
concentration at 8 h ([2]; mouse, blood, single SC 10 mg free base/kg, read-out: Cmin (8 h)): 10 ng/mL
Cav ([2]; single SC 10 mg free base/kg): 78 ng/mL
Cav ([3]; Friesian cattle, single IM 10 mg free base/kg): 253 ng/mL
AUC 0-∞ [3, 8]: 510,000 ng-min/mL and 460,000 ng-min/mL
Cmax [3, 8]: 950 ng/mL and 1,700 ng/mL and 2,600 ng/mL
F [3, 8]: 75% and 66%
AUC 0-∞ [3, 9]: 500,000 ± 30,000 ng-min/mL
Cmax [3, 9]: 1700 ± 800 ng/mL
F [3, 9]: 73 ± 6%
Tmax [3, 9]: 1.3 ± 0.6 h
Injection site tolerability ([3]; cattle, IM, pharmacokinetic study): irritancy and necrosis
AUC 0-∞ [3, 10]: 94,000 ng-min/mL and 180,000 ng-min/mL
Clb [3, 10]: 14 mL/min/kg and 21 mL/min/kg and 11 mL/min/kg
half-life [3, 10]: 3 h
AUC 0-∞ [3, 11]: 140,000 ± 40,000 ng-min/mL
Clb [3, 11]: 15 mL/min/kg and 15 ± 5 mL/min/kg
Vdss [3, 11]: 2.3 ± 0.6 L/kg
AUC ([3]; male, Holstein-Friesian cross, bovine, blood, 10 mg/kg, Friesian cattle, single IM 10 mg free base/kg): 7330 ng·h/mL
AUC(0-inf) [3, 12]: 8830 ng·h/mL
bioavailability [3, 12]: 78%
Tmax ([3]; male, Holstein-Friesian cross, bovine, blood, im, 10 mg/kg, cattle, IM 10 mg/kg, individual animals 1644, 3646, 7643, read-out: Tmax): 2 h
AUC(0-inf) [3, 13]: 8170 ng·h/mL
bioavailability [3, 13]: 74%
Cmax ([3]; male, Holstein-Friesian cross, bovine, blood, im, 10 mg/kg, cattle, IM 10 mg/kg, n = 3, mean, read-out: Cmax): 1720 ng/mL
Tmax ([3]; male, Holstein-Friesian cross, bovine, blood, im, 10 mg/kg, cattle, IM 10 mg/kg, n = 3, mean, read-out: Tmax): 1 h
concentration at 24 h ([3]; male, Holstein-Friesian cross, bovine, blood, intramuscular, Friesian cattle, single IM 10 mg free base/kg, read-out: Cmin (24 h)): 20 ng/mL
AUC(0-inf) [3, 14]: 2330 ng·h/mL
half-life ([3]; male, Holstein-Friesian cross, bovine, blood, iv, 2 mg/kg, cattle, IV 2 mg/kg, individual animals 1644, 3646, 7643, read-out: Half-life (converted)): 6 h
Vd [3, 14]: 2 L/kg
AUC(0-inf) [3, 15]: 2170 ng·h/mL
Vd [3, 15]: 3 L/kg
half-life ([3]; male, Holstein-Friesian cross, bovine, whole blood, iv, 2 mg/kg, cattle, IV 2 mg/kg, n = 3, mean, read-out: half-life (converted)): 4 ± 2 h
EC50 (L6 cells): 3600 nM
